Patent publication US4065616A, “Processes for production of a 1-N-(α-hydroxy-.PHI.-amino alkanoyl)-3-deoxy-5-O-pentafuranosyl neamine and new compounds produced by the same processes” (Zaidan Hojin Biseibutsu Kagaku Kenkyu Kai, priority 1975, dated 1977)
In brackets after ≈: the same amount, converted by molar mass. Where two headings read alike, the source gives them in different places.

Legend:
[1] = system: kanamycin-resistant bacteria; details: in words, prior work; cited from earlier work
[2] = system: Bacillus subtilis B-558; test: M.I.C. by standard serial dilution method; assay type: cell-based; details: read-out: minimum inhibitory concentration (M.I.C.)
Protocol: (§1) These particular compounds, that is, 1-n-(α-hydroxy-ω-aminoalkanoyl)-3'-deoxy-5-O-pentofuranosylneamines according to the aforesaid general formula (I) have useful antibacterial activity against a wide variety of bacteria, including gram-negative bacteria and gram-positive bacteria. The minimum inhibitory concentration (M.I.C.) (mcg/ml) of these compounds against various organisms was determined by a standard serial dilution method at an incubation temperature of 37° C, the estimation being made after 18 hours incubation or each test organism, except that the incubation time was 48 hours for Mycobacterium smegmatis. The incubation medium used was nutrient agar.

[3] = system: Escherichia coli K-12 JR66/W677; test: M.I.C. by standard serial dilution method; assay type: cell-based; details: K12JR66/W677, 18 h, read-out: minimum inhibitory concentration (M.I.C.)
Protocol: as §1

[4] = system: Escherichia coli K-12 LA 290 R55; test: M.I.C. by standard serial dilution method; assay type: cell-based; details: K12LA290R55, 18 h, read-out: minimum inhibitory concentration (M.I.C.)
Protocol: as §1

[5] = system: Escherichia coli K-12 LA 290 R56; test: M.I.C. by standard serial dilution method; assay type: cell-based; details: K12LA290R56, 18 h, read-out: minimum inhibitory concentration (M.I.C.)
Protocol: as §1

[6] = system: Escherichia coli K-12 LA 290 R64; test: M.I.C. by standard serial dilution method; assay type: cell-based; details: K12LA290R64, 18 h, read-out: minimum inhibitory concentration (M.I.C.)
Protocol: as §1

[7] = system: Escherichia coli K-12 ML 1410 R81; test: M.I.C. by standard serial dilution method; assay type: cell-based; details: 18 h, read-out: minimum inhibitory concentration (M.I.C.)
Protocol: as §1

[8] = system: Escherichia coli K-12 ML 1410; test: M.I.C. by standard serial dilution method; assay type: cell-based; details: K12ML1410, E. coli K-12 ML 1410, nutrient agar, 37° C, 18 hours, read-out: minimum inhibitory concentration (M.I.C.)
Protocol: as §1

[9] = system: Escherichia coli K-12 ML 1629; test: M.I.C. by standard serial dilution method; assay type: cell-based; details: read-out: minimum inhibitory concentration (M.I.C.)
Protocol: as §1

[10] = system: Escherichia coli K-12 ML 1630; test: M.I.C. by standard serial dilution method; assay type: cell-based; details: K12ML1630, E. coli K-12 ML 1630, nutrient agar, 37° C, 18 hours, read-out: minimum inhibitory concentration (M.I.C.)
Protocol: as §1

[11] = system: Escherichia coli K-12 W677; test: M.I.C. by standard serial dilution method; assay type: cell-based; details: read-out: minimum inhibitory concentration (M.I.C.)
Protocol: as §1

[12] = system: Escherichia coli K-12; test: M.I.C. by standard serial dilution method; assay type: cell-based; details: read-out: minimum inhibitory concentration (M.I.C.)
Protocol: as §1

[13] = system: Escherichia coli NIHJ; test: M.I.C. by standard serial dilution method; assay type: cell-based; details: read-out: minimum inhibitory concentration (M.I.C.)
Protocol: as §1

[14] = system: Klebsiella pneumoniae PCI 602; test: M.I.C. by standard serial dilution method; assay type: cell-based; details: read-out: minimum inhibitory concentration (M.I.C.)
Protocol: as §1

[15] = system: Klebsiella pneumoniae Type 22, No. 3038; test: M.I.C. by standard serial dilution method; assay type: cell-based; details: read-out: minimum inhibitory concentration (M.I.C.)
Protocol: as §1

[16] = system: Mycobacterium smegmatis ATCC 607; test: M.I.C. by standard serial dilution method; assay type: cell-based; details: Mycolicibacterium smegmatis, ATCC607, nutrient agar, 37° C, 48 hours, read-out: minimum inhibitory concentration (M.I.C.)
Protocol: as §1

[17] = system: Proteus rettgeri GN 311; test: M.I.C. by standard serial dilution method; assay type: cell-based; details: Providencia rettgeri, GN311, nutrient agar, 37° C, 18 hours, read-out: minimum inhibitory concentration (M.I.C.)
Protocol: as §1

[18] = system: Proteus rettgeri GN 466; test: M.I.C. by standard serial dilution method; assay type: cell-based; details: Providencia rettgeri, read-out: minimum inhibitory concentration (M.I.C.)
Protocol: as §1

[19] = system: Pseudomonas aeruginosa 99; test: M.I.C. by standard serial dilution method; assay type: cell-based; details: P. aeruginosa 99, nutrient agar, 37° C, 18 hours, read-out: minimum inhibitory concentration (M.I.C.)
Protocol: as §1

[20] = system: Pseudomonas aeruginosa A3; test: M.I.C. by standard serial dilution method; assay type: cell-based; details: P. aeruginosa A3, nutrient agar, 37° C, 18 hours, read-out: minimum inhibitory concentration (M.I.C.)
Protocol: as §1

[21] = system: Pseudomonas aeruginosa GN 315; test: M.I.C. by standard serial dilution method; assay type: cell-based; details: GN315, P. aeruginosa GN 315, nutrient agar, 37° C, 18 hours, read-out: minimum inhibitory concentration (M.I.C.)
Protocol: as §1

[22] = system: Pseudomonas aeruginosa No. 12; test: M.I.C. by standard serial dilution method; assay type: cell-based; details: P. aeruginosa No. 12, nutrient agar, 37° C, 18 hours, read-out: minimum inhibitory concentration (M.I.C.)
Protocol: as §1

[23] = system: Pseudomonas aeruginosa TI-13; test: M.I.C. by standard serial dilution method; assay type: cell-based; details: TI13, P. aeruginosa TI-13, nutrient agar, 37° C, 18 hours, read-out: minimum inhibitory concentration (M.I.C.)
Protocol: as §1

[24] = system: Salmonella typhosa T-63; test: M.I.C. by standard serial dilution method; assay type: cell-based; details: Salmonella enterica, 18 h, read-out: minimum inhibitory concentration (M.I.C.)
Protocol: as §1

[25] = system: Sarcina lutea PCl 1001; test: M.I.C. by standard serial dilution method; assay type: cell-based; details: Micrococcus luteus, PCL1001, nutrient agar, 37° C, 18 hours, read-out: minimum inhibitory concentration (M.I.C.)
Protocol: as §1

[26] = system: Staphylococcus aureus FDA 209P; test: M.I.C. by standard serial dilution method; assay type: cell-based; details: FDA209P, read-out: minimum inhibitory concentration (M.I.C.)
Protocol: as §1

[27] = GN466, Proteus rettgeri GN 466, nutrient agar, 37° C, 18 hours
[28] = S. aureus FDA 209P, nutrient agar, 37° C, 18 hours
[29] = B558, B. subtilis B-558, nutrient agar, 37° C, 18 hours
[30] = K12W677, E. coli K-12 W677, nutrient agar, 37° C, 18 hours
[31] = K12, E. coli K-12, nutrient agar, 37° C, 18 hours
[32] = E. coli NIHJ, nutrient agar, 37° C, 18 hours

| Structure (SMILES) | antibacterial activity against resistant bacteria [1] | MIC [3] | MIC [4] | MIC [5] | MIC [6] | MIC [7] | MIC [8] | MIC ([9]; K12ML1629, 18 h) | MIC [10] | MIC ([14]; PCI602, 18 h) | MIC ([15]; 18 h) | MIC [16] | MIC [17] | MIC [19] | MIC [20] | MIC [21] | MIC [22] | MIC [23] | MIC [24] | MIC [25] | further results |
| --- | --- | --- | --- | --- | --- | --- | --- | --- | --- | --- | --- | --- | --- | --- | --- | --- | --- | --- | --- | --- | --- |
| NC[C@H]1O[C@H](O[C@H]2[C@H](O)[C@@H](O[C@H]3O[C@H](CO)[C@@H](O)[C@H](N)[C@H]3O)[C@H](N)C[C@@H]2N)[C@H](O)C[C@@H]1O [3'-deoxykanamycin A] | high antibacterial activity against the above-mentioned resistant bacteria | – | – | – | – | – | – | – | – | – | – | – | – | – | – | – | – | – | – | – | – |
| NC[C@H]1O[C@H](O[C@H]2[C@H](O)[C@@H](O[C@H]3O[C@H](CO)[C@@H](O)[C@H](N)[C@H]3O)[C@H](N)C[C@@H]2N)[C@H](N)C[C@@H]1O [3'-deoxykanamycin B] | high antibacterial activity against the above-mentioned resistant bacteria | – | – | – | – | – | – | – | – | – | – | – | – | – | – | – | – | – | – | – | – |
| NC[C@H]1O[C@H](O[C@H]2[C@H](O[C@@H]3O[C@H](CO)[C@@H](O)[C@H]3O)[C@@H](O)[C@H](N)C[C@@H]2N)[C@H](N)C[C@@H]1O [3'-deoxyribostamycin] | high antibacterial activity against the above-mentioned resistant bacteria | – | – | – | – | – | – | – | – | – | – | – | – | – | – | – | – | – | – | – | – |
| NCC(O)C(=O)N[C@@H]1C[C@H](N)[C@@H](O[C@H]2O[C@H](CN)[C@@H](O)C[C@H]2N)[C@H](O[C@@H]2O[C@H](CO)[C@H](O)[C@H]2O)[C@H]1O (stereo partly drawn) [Compound No. 1, 1N-((RS)-3-amino-2-hydroxypropionyl)-3'-deoxy-5-O-β-D-xylofuranosylneamine] | – | 3.12 mg/L (≈ 5.94 µM) | 3.12 mg/L (≈ 5.94 µM) | 3.12 mg/L (≈ 5.94 µM) | 1.56 mg/L (≈ 2.97 µM) | 6.25 mg/L (≈ 11.9 µM) | 3.12 mg/L (≈ 5.94 µM) | 1.56 mg/L (≈ 2.97 µM) | 3.12 mg/L (≈ 5.94 µM) | 1.56 mg/L (≈ 2.97 µM) | 1.56 mg/L (≈ 2.97 µM) | 0.39 mg/L (≈ 0.742 µM) | 12.5 mg/L (≈ 23.8 µM) | 12.5 mg/L (≈ 23.8 µM) | 6.25 mg/L (≈ 11.9 µM) | > 100 mg/L | 12.5 mg/L (≈ 23.8 µM) | 25 mg/L (≈ 47.6 µM) | 1.56 mg/L (≈ 2.97 µM) | 25 mg/L (≈ 47.6 µM) | MIC ([2]; B558, 18 h): 1.56 mg/L (≈ 2.97 µM); MIC ([11]; K12W677, 18 h): 1.56 mg/L (≈ 2.97 µM); MIC ([12]; K12, 18 h): 1.56 mg/L (≈ 2.97 µM); MIC ([13]; 18 h): 1.56 mg/L (≈ 2.97 µM); MIC [18, 27]: 3.12 mg/L (≈ 5.94 µM); MIC [26, 28]: 3.12 mg/L (≈ 5.94 µM) |
| NC[C@H](O)C(=O)N[C@@H]1C[C@H](N)[C@@H](O[C@H]2O[C@H](CN)[C@@H](O)C[C@H]2N)[C@H](O[C@@H]2O[C@H](CO)[C@H](O)[C@H]2O)[C@H]1O [Compound No. 2, 1-n-((S)-3-amino-2-hydroxypropionyl)-3'-deoxy-5-O-β-D-xylofuranosylneamine] | – | 0.78 mg/L (≈ 1.48 µM) | 0.78 mg/L (≈ 1.48 µM) | 0.78 mg/L (≈ 1.48 µM) | 0.78 mg/L (≈ 1.48 µM) | 3.12 mg/L (≈ 5.94 µM) | 3.12 mg/L (≈ 5.94 µM) | 1.56 mg/L (≈ 2.97 µM) | 1.56 mg/L (≈ 2.97 µM) | 1.56 mg/L (≈ 2.97 µM) | 1.56 mg/L (≈ 2.97 µM) | 0.39 mg/L (≈ 0.742 µM) | 6.25 mg/L (≈ 11.9 µM) | 12.5 mg/L (≈ 23.8 µM) | 3.12 mg/L (≈ 5.94 µM) | > 100 mg/L | 12.5 mg/L (≈ 23.8 µM) | 25 mg/L (≈ 47.6 µM) | 0.78 mg/L (≈ 1.48 µM) | 25 mg/L (≈ 47.6 µM) | MIC [2, 29]: 0.78 mg/L (≈ 1.48 µM); MIC [11, 30]: 0.78 mg/L (≈ 1.48 µM); MIC [12, 31]: 0.39 mg/L (≈ 0.742 µM); MIC [13, 32]: 0.78 mg/L (≈ 1.48 µM); MIC ([18]; GN466, 18 h): 1.56 mg/L (≈ 2.97 µM); MIC ([26]; 18 h): 1.56 mg/L (≈ 2.97 µM) |
| NCC[C@H](O)C(=O)N[C@@H]1C[C@H](N)[C@@H](O[C@H]2O[C@H](CN)[C@@H](O)C[C@H]2N)[C@H](O[C@@H]2O[C@H](CO)[C@@H](O)[C@H]2O)[C@H]1O [Compound No. 5, 1-N-((S)-4-amino-2-hydroxybutyryl)-3'-deoxy-5-O-β-D-ribofuranosylneamine] | – | 1.56 mg/L (≈ 2.89 µM) | 0.78 mg/L (≈ 1.45 µM) | 0.39 mg/L (≈ 0.723 µM) | 0.2 mg/L (≈ 0.371 µM) | – | 0.78 mg/L (≈ 1.45 µM) | – | 1.56 mg/L (≈ 2.89 µM) | – | – | < 0.2 mg/L | 3.12 mg/L (≈ 5.78 µM) | 12.5 mg/L (≈ 23.2 µM) | 3.12 mg/L (≈ 5.78 µM) | > 100 mg/L | 25 mg/L (≈ 46.3 µM) | 25 mg/L (≈ 46.3 µM) | 0.39 mg/L (≈ 0.723 µM) | 25 mg/L (≈ 46.3 µM) | MIC [2, 29]: < 0.2 mg/L; MIC ([9]; K12ML1629, E. coli K-12 ML 1629, nutrient agar, 37° C, 18 hours): 0.39 mg/L (≈ 0.723 µM); MIC [11, 30]: 0.39 mg/L (≈ 0.723 µM); MIC [12, 31]: 0.2 mg/L (≈ 0.371 µM); MIC [13, 32]: 0.78 mg/L (≈ 1.45 µM); MIC ([14]; PCI602, K. pneumoniae PCI 602, nutrient agar, 37° C, 18 hours): 0.39 mg/L (≈ 0.723 µM); MIC ([15]; K. pneumoniae Type 22, No. 3038, nutrient agar, 37° C, 18 hours): 0.78 mg/L (≈ 1.45 µM); MIC [18, 27]: 0.78 mg/L (≈ 1.45 µM); MIC [26, 28]: 0.39 mg/L (≈ 0.723 µM) |
